species on record: Rattus norvegicus; experiment: not given; details: not given

Compound | LBF
Cc1nc2ccccc2n1[C@H]1C[C@H]2CC[C@@H](C1)N2CCC1(c2cccc(Cl)c2)CCN(C(=O)C(C)(C)C)CC1 | 38%

tested on: Human immunodeficiency virus 1; experiment: Antiviral activity against HIV1 Ba-L in human PBL cells by MTS assay; assay type: functional, organism-based; details: Human immunodeficiency virus 1, Ba-L

Compound | IC50
Cc1nc2ccccc2n1[C@H]1C[C@H]2CC[C@@H](C1)N2CCC1(c2cccc(Cl)c2)CCN(C(=O)C(C)(C)C)CC1 | 0.00191 µM

target: C-C chemokine receptor type 5 (Homo sapiens, UniProt P51681); experiment: Displacement of [125I]MIP-1beta from human CCR5 expressed in CHO cells; assay type: cell-based; details: not given
Sequence (P51681 whole entry): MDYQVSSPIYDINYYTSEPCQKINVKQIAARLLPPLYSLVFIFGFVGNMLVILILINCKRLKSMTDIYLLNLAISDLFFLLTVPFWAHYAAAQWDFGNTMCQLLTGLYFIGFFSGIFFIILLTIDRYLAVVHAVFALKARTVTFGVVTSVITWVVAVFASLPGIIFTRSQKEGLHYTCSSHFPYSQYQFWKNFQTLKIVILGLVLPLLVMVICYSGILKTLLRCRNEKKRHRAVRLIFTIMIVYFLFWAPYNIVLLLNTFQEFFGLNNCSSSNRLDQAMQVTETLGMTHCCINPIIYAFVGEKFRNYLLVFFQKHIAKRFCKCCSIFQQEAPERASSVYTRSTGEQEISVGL

Compound | IC50
O=C1CCC(CCCN2CCC(n3c(=O)[nH]c4ccccc43)CC2)(c2ccc(Cl)c(Cl)c2)CN1Cc1ccccc1 (stereo not given) | 20 µM
Cc1nc2ccccc2n1[C@H]1C[C@H]2CC[C@@H](C1)N2CCCC1(c2ccccc2)CCN(C(=O)OC(C)(C)C)CC1 | > 31.6 µM
Cc1nc2ccccc2n1[C@@H]1C[C@H]2CC[C@@H](C1)N2CCCC1(c2ccc(Cl)c(Cl)c2)CCN(C(=O)OC(C)(C)C)CC1 | 20 µM
Cc1nc2ccccc2n1[C@@H]1C[C@H]2CC[C@@H](C1)N2CCCC1(c2ccccc2)CCN(C(=O)c2ccco2)CC1 | 5.01 µM
Cc1nc2ccccc2n1[C@@H]1C[C@H]2CC[C@@H](C1)N2CCCC1(c2ccccc2)CCN(C(=O)c2ccccc2)CC1 | 1.26 µM
Cc1nc2ccccc2n1[C@@H]1C[C@H]2CC[C@@H](C1)N2CCC1(c2ccccc2)CCN(C(=O)OC(C)(C)C)CC1 | 0.0631 µM
Cc1nc2ccccc2n1[C@@H]1C[C@H]2CC[C@@H](C1)N2CCC1(c2ccccc2)CCN(C(=O)OCc2ccccc2)CC1 | 0.0631 µM
Cc1nc2ccccc2n1[C@H]1C[C@H]2CC[C@@H](C1)N2CCC1(c2ccc(Cl)c(Cl)c2)CCN(C(=O)c2ccccc2)CC1 | 0.0158 µM
Cc1nc2ccccc2n1[C@H]1C[C@H]2CC[C@@H](C1)N2CCC1(c2cccc(Cl)c2)CCN(C(=O)c2ccccc2)CC1 | 0.00525 µM
Cc1nc2ccccc2n1[C@H]1C[C@H]2CC[C@@H](C1)N2CCC1(c2ccc(Cl)c(Cl)c2)CCN(C(=O)C(C)(C)C)CC1 | 0.00724 µM
Cc1nc2ccccc2n1[C@H]1C[C@H]2CC[C@@H](C1)N2CCC1(c2ccc(Cl)c(Cl)c2)CCN(C(=O)OC(C)(C)C)CC1 | 0.0295 µM
Cc1nc2ccccc2n1[C@H]1C[C@H]2CC[C@@H](C1)N2CCC1(c2cccc(Cl)c2)CCN(C(=O)OC(C)(C)C)CC1 | 0.00501 µM
Cc1nc2ccccc2n1[C@H]1C[C@H]2CC[C@@H](C1)N2CCC1(c2ccc(Cl)c(Cl)c2)CCN(C(=O)OC(C)(C)C)C1 (stereo not given in full) | 0.776 µM
O=C(c1ccccc1)N1CCCC(CCCN2CCC(n3c(=O)[nH]c4ccccc43)CC2)(c2ccc(Cl)c(Cl)c2)C1 (stereo not given) | 1.58 µM
CN1CN(c2ccccc2)C2(CCN(CCCC3(c4ccc(Cl)c(Cl)c4)CCN(C(=O)c4ccco4)C3)CC2)C1=O (stereo not given) | 7.08 µM
O=C1NCN(c2ccccc2)C12CCN(CCOC1(c3ccc(Cl)c(Cl)c3)CCN(S(=O)(=O)c3ccccc3)CC1)CC2 | 2.4 µM
O=C1CC(CCCN2CCC3(CC2)C(=O)NCN3c2ccccc2)(c2ccc(Cl)c(Cl)c2)CN1Cc1ccccc1 (stereo not given) | 1.02 µM
NC(=O)C1(Nc2ccccc2)CCN(CCCC2(c3ccc(Cl)c(Cl)c3)CCCN(C(=O)c3ccccc3)C2)CC1 (stereo not given) | > 31.6 µM
CC(C)(C)OC(=O)N1CCC(CCN2CCC3(CC2)C(=O)NCN3c2ccccc2)(c2ccccc2)CC1 | 4.57 µM

Compound | IC50
CC(C)(C)OC(=O)N1CCC(CCCN2CCC(n3c(=O)[nH]c4ccccc43)CC2)(c2ccc(Cl)c(Cl)c2)CC1 | 7.94 µM
CC(C)(C)OC(=O)N1CCC(CCCN2CCC(n3c(=O)[nH]c4ccccc43)CC2)(c2ccccc2)CC1 | 3.98 µM
O=C(c1ccco1)N1CCC(CCCN2CCC3(CC2)C(=O)NCN3C2CCCCC2)(c2ccc(Cl)c(Cl)c2)C1 (stereo not given) | > 31.6 µM
O=C1CC(CCN2CCC3(CC2)C(=O)NCN3c2ccccc2)(c2ccc(Cl)c(Cl)c2)CN1Cc1ccccc1 (stereo not given) | 9.33 µM
O=C1NCN(c2ccccc2)C12CCN(CCCC1(c3ccc(Cl)c(Cl)c3)CCN(Cc3ccco3)C1)CC2 (stereo not given) | 5.25 µM
O=C(c1ccco1)N1CCC(CCN2CCC3(CC2)C(=O)NCN3c2ccccc2)(c2ccccc2)C1 (stereo not given) | 9.33 µM
O=C(c1ccco1)N1CCC(OCCN2CCC3(CC2)C(=O)NCN3c2ccccc2)(c2ccc(Cl)c(Cl)c2)CC1 | 3.47 µM
O=C1NCN(c2ccccc2)C12CCN(CCCC1(c3ccc(Cl)c(Cl)c3)CN(S(=O)(=O)c3ccccc3)C1)CC2 | 9.12 µM
O=C1NCN(c2ccccc2)C12CCN(CCOC1(c3ccc(Cl)c(Cl)c3)CCN(S(=O)(=O)c3ccccc3)C1)CC2 (stereo not given) | 20.4 µM
O=C1CCC(CCCN2CCC3(CC2)C(=O)NCN3c2ccccc2)(c2ccc(Cl)c(Cl)c2)CN1Cc1ccccc1 (stereo not given) | 1 µM
Cc1nc2ccccc2n1C1CC2COCC(C1)N2CCC1(c2ccccc2)CCN(C(=O)c2ccccc2)CC1 (stereo not given) | > 3.16 µM
O=C(c1ccco1)N1CCC(CCCN2CCC3(CC2)C(=O)NC(=O)N3c2ccccc2)(c2ccc(Cl)c(Cl)c2)C1 (stereo not given) | > 31.6 µM
O=C(c1ccccc1)N1CCCC(CCCN2CCC3(CC2)C(=O)NCN3c2ccccc2)(c2ccc(Cl)c(Cl)c2)C1 (stereo not given) | 0.447 µM
O=C(C1CCCC1)N1CCC(OCCN2CCC3(CC2)C(=O)NCN3c2ccccc2)(c2ccc(Cl)c(Cl)c2)C1 (stereo not given) | 4.79 µM
O=C(c1ccco1)N1CCC(CCN2CCC3(CC2)C(=O)NCN3c2ccccc2)(c2ccc(Cl)c(Cl)c2)C1 (stereo not given) | 1.48 µM
O=C(c1ccco1)N1CCC(OCCN2CCC3(CC2)C(=O)NCN3c2ccccc2)(c2ccc(Cl)c(Cl)c2)C1 (stereo not given) | 3.98 µM
O=C(c1ccco1)N1CCC(CCCN2CCC3(CC2)C(=O)NCN3c2ccccc2)(c2ccc(Cl)c(Cl)c2)C1 (stereo not given) | 0.141 µM
CC(C)(C)OC(=O)N1CCC(CCCN2CCC3(CC2)C(=O)NCN3c2ccccc2)(c2ccccc2)CC1 | 8.51 µM
Cc1nc2ccccc2n1[C@H]1CC2CC[C@H](C1)N2CCC1(c2ccccc2)CCN(C(=O)C2CCCC2)CC1 (single isomer, unassigned) | 0.02 µM

tested on: Human immunodeficiency virus 1; experiment: Antiviral activity against HIV1 Ba-L in human HOS cells by MTS assay; assay type: functional, organism-based; details: Human immunodeficiency virus 1, Ba-L

Compound | IC50
Cc1nc2ccccc2n1[C@@H]1C[C@H]2CC[C@@H](C1)N2CCC1(c2ccccc2)CCN(C(=O)OC(C)(C)C)CC1 | 1.26 µM
Cc1nc2ccccc2n1[C@H]1C[C@H]2CC[C@@H](C1)N2CCC1(c2ccc(Cl)c(Cl)c2)CCN(C(=O)C(C)(C)C)CC1 | 0.0339 µM
Cc1nc2ccccc2n1[C@H]1C[C@H]2CC[C@@H](C1)N2CCC1(c2cccc(Cl)c2)CCN(C(=O)C(C)(C)C)CC1 | 0.0145 µM

tested on: not listed separately; experiment: Bioavailability in rat at 1 mg/kg, po; details: in vivo

Compound | bioavailability
Cc1nc2ccccc2n1[C@H]1C[C@H]2CC[C@@H](C1)N2CCC1(c2cccc(Cl)c2)CCN(C(=O)C(C)(C)C)CC1 | 26%

tested on: not listed separately; experiment: in vivo; details: rat

Compound | clearance
Cc1nc2ccccc2n1[C@H]1C[C@H]2CC[C@@H](C1)N2CCC1(c2cccc(Cl)c2)CCN(C(=O)C(C)(C)C)CC1 | 1.26 L/h/kg

Source: ChEMBL document CHEMBL1140149, “Discovery of bioavailable 4,4-disubstituted piperidines as potent ligands of the chemokine receptor 5 and inhibitors of the human immunodeficiency virus-1” (J Med Chem, 2008)
